How the values were obtained:
[1] = Noncompetitive inhibition of Streptococcus pneumoniae sialidase NanB using 4-methylumbelliferyl-alpha-D-N-acetylneuraminic acid as substrate after 60 mins by Lineweaver-Burk plot/Dixon plot analysis
[2] = Noncompetitive inhibition of Streptococcus pneumoniae sialidase NanC using 4-methylumbelliferyl-alpha-D-N-acetylneuraminic acid as substrate after 60 mins by Lineweaver-Burk plot/Dixon plot analysis
Sialidase A [3] = target: T1, Sialidase A (Streptococcus pneumoniae, UniProt P62575); assay: Noncompetitive inhibition of Streptococcus pneumoniae sialidase NanA using 4-methylumbelliferyl-alpha-D-N-acetylneuraminic acid as substrate after 60 mins by Lineweaver-Burk plot/Dixon plot analysis
T1 sequence (P62575 whole entry): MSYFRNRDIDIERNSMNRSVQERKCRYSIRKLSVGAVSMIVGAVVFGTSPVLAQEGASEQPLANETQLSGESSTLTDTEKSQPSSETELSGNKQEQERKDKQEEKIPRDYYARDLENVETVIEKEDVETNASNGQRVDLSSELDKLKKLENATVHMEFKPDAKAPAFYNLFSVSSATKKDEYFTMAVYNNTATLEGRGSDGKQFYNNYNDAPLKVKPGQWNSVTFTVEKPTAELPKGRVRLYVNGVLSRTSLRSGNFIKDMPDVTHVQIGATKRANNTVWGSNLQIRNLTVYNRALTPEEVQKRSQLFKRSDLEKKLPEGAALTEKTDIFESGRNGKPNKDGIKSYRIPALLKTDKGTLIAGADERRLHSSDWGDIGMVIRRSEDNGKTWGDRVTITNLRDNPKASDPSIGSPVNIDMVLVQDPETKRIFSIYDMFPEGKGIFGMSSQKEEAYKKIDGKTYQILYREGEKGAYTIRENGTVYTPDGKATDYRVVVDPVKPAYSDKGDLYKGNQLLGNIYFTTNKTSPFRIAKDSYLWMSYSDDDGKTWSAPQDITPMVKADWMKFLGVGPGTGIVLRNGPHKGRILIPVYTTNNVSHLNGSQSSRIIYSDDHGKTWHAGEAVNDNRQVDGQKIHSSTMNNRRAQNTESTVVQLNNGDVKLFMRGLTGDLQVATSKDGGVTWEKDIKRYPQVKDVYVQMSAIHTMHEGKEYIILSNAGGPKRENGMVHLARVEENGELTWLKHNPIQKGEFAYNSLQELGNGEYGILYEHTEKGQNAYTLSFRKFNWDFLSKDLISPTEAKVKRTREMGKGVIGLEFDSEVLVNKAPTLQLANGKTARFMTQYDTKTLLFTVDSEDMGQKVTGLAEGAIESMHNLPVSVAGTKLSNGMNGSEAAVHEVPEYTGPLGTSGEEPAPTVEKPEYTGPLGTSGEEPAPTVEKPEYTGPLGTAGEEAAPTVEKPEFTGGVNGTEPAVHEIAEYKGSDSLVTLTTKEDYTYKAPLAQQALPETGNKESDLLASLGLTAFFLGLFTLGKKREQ

Sialidase A [4] = target: T1, Sialidase A; assay: (§1) Inhibition of Streptococcus pneumoniae sialidase NanA using 4-methylumbelliferyl-alpha-D-N-acetylneuraminic acid as substrate after 60 mins by FRET assay
[5] = target: Sialidase A (Streptococcus pneumoniae) (UniProt P62575); assay: as §1
Chain of Sialidase A (Streptococcus pneumoniae) (P62575 whole entry): as above

Streptococcus pneumoniae [6] = assay: (§2) Inhibition of Streptococcus pneumoniae sialidase NanC using 4-methylumbelliferyl-alpha-D-N-acetylneuraminic acid as substrate after 60 mins by FRET assay
[7] = as §2
Streptococcus pneumoniae [8] = assay: (§3) Inhibition of Streptococcus pneumoniae sialidase NanB using 4-methylumbelliferyl-alpha-D-N-acetylneuraminic acid as substrate after 60 mins by FRET assay
[9] = as §3
Sialidase A [10] = target: T1, Sialidase A; assay: Competitive inhibition of Streptococcus pneumoniae sialidase NanA using 4-methylumbelliferyl-alpha-D-N-acetylneuraminic acid as substrate after 60 mins by Lineweaver-Burk plot/Dixon plot analysis

SMILES | Ki [1] [µM] | Ki [2] [µM] | Ki (Sialidase A [3]) [µM] | IC50 (Sialidase A [4]) [µM] | inhibition [5] | inhibition (Streptococcus pneumoniae [6]) | IC50 ([7]; read-out: IC50) [µM] | inhibition (Streptococcus pneumoniae [8]) | IC50 ([9]; read-out: IC50) [µM] | IC50 [7] | IC50 [9] | Ki (Sialidase A [10]) [µM]
C/C=C/c1cc(OC)c2c(c1)[C@H](C)[C@@H](c1ccc3c(c1)OCO3)O2 [(-)-LICARIN B] | 13.5 | 12.1 | 1.3 | 1.5 | Dose-dependent effect | Dose-dependent effect | 30.7 | Dose-dependent effect | 14 | – | – | –
C/C=C/c1cc(OC)c2c(c1)[C@H](C)[C@@H](c1ccc(O)c(OC)c1)O2 [LICARIN A] | – | – | 9.4 | 7.9 | Dose-dependent effect | Dose-dependent effect | 113 | Dose-dependent effect | 95.8 | – | – | –
C=CCc1cc(OC)c(O[C@H](C)[C@H](OC(C)=O)c2ccc(OC)c(OC)c2)c(OC)c1 | – | – | – | 295 | – | – | – | – | – | Not Active | Not Active | –
C=CCc1cc(OC)c(O)c(OC)c1 [METHOXYEUGENOL] | – | 30.2 | 4.2 | 6.9 | Dose-dependent effect | Dose-dependent effect | 33.6 | Dose-dependent effect | 77.6 | – | – | –
O=C(CCCCCCCCc1ccc(O)c(O)c1)c1c(O)cccc1O [MALABARICONE C] | 3 | 2.1 | – | 0.3 | Dose-dependent effect | Dose-dependent effect | 2.9 | Dose-dependent effect | 3.6 | – | – | 0.1
C=CCc1cc(OC)c(O[C@@H](C)[C@H](O)c2ccc(O)c(OC)c2)c(OC)c1 | – | – | 15.1 | 25.6 | Dose-dependent effect | Dose-dependent effect | 103 | Dose-dependent effect | 229 | – | – | –
COc1cc([C@H]2O[C@@H](c3ccc(O)c(OC)c3)[C@@H](C)[C@@H]2C)ccc1O | – | – | 21.9 | 37.2 | Dose-dependent effect | Dose-dependent effect | 274 | Dose-dependent effect | 331 | – | – | –
O=C(CCCCCCCCc1ccc(O)cc1)c1c(O)cccc1O [MALABARICONE B] | 5.6 | 5.8 | – | 0.4 | Dose-dependent effect | Dose-dependent effect | 14.3 | Dose-dependent effect | 5.7 | – | – | 0.5
C=CCc1cc(O)c(OC)c(O)c1 | 74 | 91.8 | 4.9 | 2 | Dose-dependent effect | Dose-dependent effect | 60.5 | Dose-dependent effect | 27.1 | – | – | –
COc1cc([C@@H](O)[C@@H](C)Oc2c(OC)cc(/C=C/CO)cc2OC)ccc1O | 39.2 | 37.8 | 3 | 1.6 | Dose-dependent effect | Dose-dependent effect | 24.6 | Dose-dependent effect | 20.9 | – | – | –
C/C=C/c1cc(OC)c2c(c1)[C@H](C)[C@@H](c1cc(OC)c3c(c1)OCO3)O2 | – | – | 47.5 | 44.2 | Dose-dependent effect | Dose-dependent effect | 317 | Dose-dependent effect | 92.1 | – | – | –

Source: ChEMBL document CHEMBL4020792, “Sialidase inhibitory activity of diarylnonanoid and neolignan compounds extracted from the seeds of Myristica fragrans” (Bioorg Med Chem Lett, 2017)
